Assay results: US20210253562A1, “ACYLSUFONAMIDE COMPOUNDS USEFUL AS EP3 RECEPTOR ANTAGONISTS” (Janssen Pharmaceutica NV, priority 2018, published 2021)

How the values were obtained:
[1] = molecular target: T1, CHO cells over-expressing the EP3 receptor (Homo sapiens, UniProt P43115); assay: CHO cell cAMP assay; EP3 cAMP antagonist dose response (sulprostone reference), HTRF; format: cell-based; conditions: sulprostone 700 nM (EC80) and FSK 2 μM (EC70); read-out: CHO_cAMP IC50
T1 construct: expressed in transfected cells; host or cells: CHO cells
T1 sequence (P43115 1-390): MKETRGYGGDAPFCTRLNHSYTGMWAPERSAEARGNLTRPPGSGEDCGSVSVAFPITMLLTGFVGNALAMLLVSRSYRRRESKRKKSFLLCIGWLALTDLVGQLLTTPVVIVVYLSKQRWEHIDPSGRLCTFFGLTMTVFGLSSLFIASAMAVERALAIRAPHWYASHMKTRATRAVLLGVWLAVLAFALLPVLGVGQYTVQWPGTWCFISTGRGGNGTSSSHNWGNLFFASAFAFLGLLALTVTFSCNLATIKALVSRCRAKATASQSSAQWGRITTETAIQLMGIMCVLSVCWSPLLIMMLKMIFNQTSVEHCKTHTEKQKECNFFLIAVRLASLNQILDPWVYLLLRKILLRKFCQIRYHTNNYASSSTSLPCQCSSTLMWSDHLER
Procedure: Biological Example 2: CHO Cell cAMP Assay
This assay monitored the cAMP generation in CHO cells over-expressing the EP3 receptor in the presence or absence of antagonist stimulated with Forskolin (FSK, CAS No. 66428-89-5) and a known EP3 Agonist (sulprostone, CAS No. 60325-46-4). For detection, a homogeneous competitive immunoassay (Time Resolved Fluorescence Energy Transfer (hTR-FRET)) was used.
Cells (6K cells per well) were plated in Poly-D-Lysine coated plates the day before the assay was to be run and were incubated at 37° C. One hour before the assay the media was removed and replaced with assay buffer (500 mL HBSS (+Ca)+2.5 mL 1M HEPES+6.66 mL 7.5% BSA) (starved at 37° C.). At the start of the assay the buffer was removed from the cells and replaced with buffer containing test compound(s). Sulprostone at an EC80 dose (700 nM) and FSK at an EC70 dose (2 μM) were added to initiate the reaction (37° C. for 30 minutes).
FSK increases cAMP production and sulprostone decreases cAMP production produced by FSK. In this assay, EP3 antagonists will increase the cAMP to the level of cAMP generated by FSK alone.
The reaction was terminated with the addition of cAMP detection reagents (labeled cAMP and labeled cAMP antibody in lysis buffer (HTRF reagent, which utilizes a cryptate-labeled anti-cAMP and d2-labeled cAMP-d2 is an HTRF acceptor fluorophore)). Approximately one hour later the plates were read on an Envision (Perkin Elmer) in HTRF mode. Well results were calculated based on a ratio of counts at 665 nm and 615 nm (data output was a calculation of the ratio: (read @665 nm/read @ 615 nm)*1000. For test compounds dosed serially, well results were converted to nM cAMP using a cAMP standard run on each plate. nM cAMP from a set of wells dosed with test compound(s) were plotted. nM cAMP was calculated for each well from a standard curve located on each plate (P1-12 and P13-24) by first calculating the slope and deriving the intercept(b):
[formula] NScAMP_s tan dard_cruve=m(nM cAMP_s tan dard_curve)+b
NSP, NSN, NSsample were converted to nM cAMP using the following equation: […]
IC50 values were determined from a […] (Hill equation) of a single 11-point compound dosing. A best-fit curve was determined by the minimum sum of squares method plotting cAMP produced vs compound concentration.

[2] = molecular target: T2, EP3 membrane (EP3 receptor) (Homo sapiens, UniProt P43115); assay: [3H]-PGE2 binding; EP3 competition binding (SPA)
T2 construct: purchased Millipore HTS092M
T2 sequence (P43115 1-390): T1 sequence (P43115 1-390)
Procedure: Biological Example 1: [3H]-PGE2 Binding
EP3 competition binding was determined using the following materials and experimental conditions: • Beads=Perkin Elmer RPNQ0001 • [3H]PGE2=Perkin Elmer NET428025UC • 384-well plate=Perkin Elmer 6007290 • EP3 membrane=Millipore HTS092M • Membrane concentration=2 μg/well • Beads concentration=0.25 mg/well • [3H]-PGE2=2 nM; DMSO—0.1% • Binding buffer=50 mM Tris, 10 mM MgCl2, 1 mM EDTA, PH 7.4.
The reaction system was prepared by mixing 5 μl of unlabeled compound; 5 μl of diluted [3H]-PGE2; 5 μl of diluted membrane; and 15 μl of SPA beads dissolved in binding buffer (adding in the following sequence: Unlabeled compound, [3H]-PGE2, Membrane and Beads).
The binding buffer was removed from refrigeration (@ 4° C.) and allowed to warm to room temperature. Test compound (@ stock concentration of […] in DMSO) was serial dilutes (1:3) with 100% DMSO using Echo plate. Diluted test compound (30 nL) was dispensed to the 384-well assay plate (using Echo 550 Labcyte System). To each well was then added assay buffer (5 μl) and each well was spun. Beads were weighed out, dissolved in assay buffer to a concentration of 0.25 mg/15 μl. Original membrane was diluted with assay buffer to a concentration of 2 μg/5 μl. Original [3H]-PGE2 with diluted with assay buffer to a concentration of 12 nM. To each test well were then added diluted [3H]-PGE2 (5 μl), diluted membrane (5 μl), and dissolved beads (15 μl). The plate was equilibrated at room temperature on a plate shaker for 2 hours and then read with a TOPCOUNT scintillation plate reader. Results were analyzed using a Prism program with non-linear regression, one-site fit for Ki.

Compound	IC50 [1] [nM]	Ki [2] [nM]
O=C(NS(=O)(=O)c1ccc(Cl)cc1)OC/C=C1\CCCc2cnn(Cc3ccc(Cl)cc3Cl)c21 [Compound #2, (E)-2-(1-(2,4-dichlorobenzyl)-1,4,5,6-tetrahydro-7H-indazol-7-ylidene)ethyl ((4-chlorophenyl)sulfonyl)carbamate]	92	11
O=C(C/C=C1\CCCc2cnn(Cc3ccc(Cl)cc3Cl)c21)NS(=O)(=O)c1cc(Cl)c(Cl)s1 [Compound #3, (E)-3-(1-(2,4-dichlorobenzyl)-1,4,5,6-tetrahydro-7H-indazol-7-ylidene)-N-((4,5-dichlorothiophen-2-yl)sulfonyl)propanamide]	33	3
O=C(NS(=O)(=O)c1cc(Cl)c(Cl)s1)OC/C=C1\CCCc2cnn(Cc3ccc(Cl)cc3Cl)c21 [Compound #5, (E)-2-(1-(2,4-dichlorobenzyl)-1,4,5,6-tetrahydro-7H-indazol-7-ylidene)ethyl ((4,5-dichlorothiophen-2-yl)sulfonyl)carbamate]	5	1
O=C(/C=C/C=C1\CCCc2cnn(Cc3ccc(Cl)cc3Cl)c21)NS(=O)(=O)c1cc(Cl)c(Cl)s1 [Compound #6, (E)-4-((E)-1-(2,4-dichlorobenzyl)-1,4,5,6-tetrahydro-7H-indazol-7-ylidene)-N-((4,5-dichlorothiophen-2-yl)sulfonyl)but-2-enamide]	110	84
Cc1nn(C)cc1S(=O)(=O)NC(=O)NC/C=C1\CCCc2cnn(Cc3ccc(Cl)cc3Cl)c21 [Compound #184, (E)-N-((2-(1-(2,4-dichlorobenzyl)-1,4,5,6-tetrahydro-7H-indazol-7-ylidene)ethyl)carbamoyl)-1,3-dimethyl-1H-pyrazole-4-sulfonamide]		14
Cc1cc(S(=O)(=O)NC(=O)NC/C=C2\CCCc3cnn(Cc4ccc(Cl)cc4Cl)c32)sc1Cl [Compound #185, (E)-5-chloro-N-((2-(1-(2,4-dichlorobenzyl)-1,4,5,6-tetrahydro-7H-indazol-7-ylidene)ethyl)carbamoyl)-4-methylthiophene-2-sulfonamide]		1
Cn1nc(Cc2ccc(Cl)cc2Cl)c2c1COC/C2=C(/F)CNC(=O)NS(=O)(=O)c1cc(Cl)c(Cl)s1 [Compound #186, (E)-4,5-dichloro-N-((2-(3-(2,4-dichlorobenzyl)-1-methyl-1,7-dihydropyrano[3,4-c]pyrazol-4(5H)-ylidene)-2-fluoroethyl)carbamoyl)thiophene-2-sulfonamide]		30
Cc1cc(S(=O)(=O)NC(=O)NC/C(F)=C2\CCCc3[nH]nc(Cc4ccc(Cl)cc4Cl)c32)sc1Cl [Compound #187, (Z)-5-chloro-N-((2-(3-(2,4-dichlorobenzyl)-1,5,6,7-tetrahydro-4H-indazol-4-ylidene)-2-fluoroethyl)carbamoyl)-4-methylthiophene-2-sulfonamide]		1
Cc1cc(Cl)ccc1Cc1nnn2c1/C(=C(\F)CNC(=O)NS(=O)(=O)c1cc(C)c(Cl)s1)CCC2 [Compound #188, (Z)-5-chloro-N-((2-(3-(4-chloro-2-methylbenzyl)-6,7-dihydro-[1,2,3]triazolo[1,5-a]pyridin-4(5H)-ylidene)-2-fluoroethyl)carbamoyl)-4-methylthiophene-2-sulfonamide]		8
Cn1nc2c(c1Cc1ccc(Cl)cc1Cl)/C(=C(\F)CNC(=O)NS(=O)(=O)c1cc(Cl)c(Cl)s1)COC2 [Compound #189, (E)-4,5-dichloro-N-((2-(3-(2,4-dichlorobenzyl)-2-methyl-2,7-dihydropyrano[3,4-c]pyrazol-4(5H)-ylidene)-2-fluoroethyl)carbamoyl)thiophene-2-sulfonamide]		1
Cc1cc(S(=O)(=O)NC(=O)NC/C(F)=C2\COCc3[nH]nc(Cc4ccc(Cl)cc4Cl)c32)sc1Cl [Compound #190, (E)-5-chloro-N-((2-(3-(2,4-dichlorobenzyl)-1,7-dihydropyrano[3,4-c]pyrazol-4(5H)-ylidene)-2-fluoroethyl)carbamoyl)-4-methylthiophene-2-sulfonamide]		1
O=C(NC/C(F)=C1\CCCc2cnn(Cc3cnn(-c4ccccc4)c3)c21)NS(=O)(=O)c1cc(Cl)c(Cl)s1 [Compound #191, (Z)-4,5-dichloro-N-((2-fluoro-2-(1-((1-phenyl-1H-pyrazol-4-yl)methyl)-1,4,5,6-tetrahydro-7H-indazol-7-ylidene)ethyl)carbamoyl)thiophene-2-sulfonamide]		15
Cc1cc(S(=O)(=O)NC(=O)NC/C=C2\CCCc3cnn(Cc4ccc(Cl)cc4Cl)c32)n(C)n1 [Compound #192, (E)-N-((2-(1-(2,4-dichlorobenzyl)-1,4,5,6-tetrahydro-7H-indazol-7-ylidene)ethyl)carbamoyl)-1,3-dimethyl-1H-pyrazole-5-sulfonamide]		6
Cc1cc(S(=O)(=O)NC(=O)NC/C(F)=C2\CCCc3cnn(Cc4ccc(Cl)cc4Cl)c32)n(C)n1 [Compound #193, (Z)—N-((2-(1-(2,4-dichlorobenzyl)-1,4,5,6-tetrahydro-7H-indazol-7-ylidene)-2-fluoroethyl)carbamoyl)-1,3-dimethyl-1H-pyrazole-5-sulfonamide]		75
Cn1ncc2ccc(S(=O)(=O)NC(=O)NC/C(F)=C3\CCCc4cnn(Cc5ccc(Cl)cc5Cl)c43)cc21 [Compound #194, (Z)—N-((2-(1-(2,4-dichlorobenzyl)-1,4,5,6-tetrahydro-7H-indazol-7-ylidene)-2-fluoroethyl)carbamoyl)-1-methyl-1H-indazole-6-sulfonamide]		25
Cn1ncc2cc(S(=O)(=O)NC(=O)NC/C(F)=C3\CCCc4cnn(Cc5ccc(Cl)cc5Cl)c43)ccc21 [Compound #195, (Z)—N-((2-(1-(2,4-dichlorobenzyl)-1,4,5,6-tetrahydro-7H-indazol-7-ylidene)-2-fluoroethyl)carbamoyl)-1-methyl-1H-indazole-5-sulfonamide]		45
Cc1cc(S(=O)(=O)NC(=O)NC/C=C2\CCCc3cnn(-c4ccc(Cl)cc4Cl)c32)sc1Cl [Compound #196, (E)-5-chloro-N-((2-(1-(2,4-dichlorophenyl)-1,4,5,6-tetrahydro-7H-indazol-7-ylidene)ethyl)carbamoyl)-4-methylthiophene-2-sulfonamide]		1
Cc1ncc(S(=O)(=O)NC(=O)NC/C(F)=C2\CCCc3cnn(Cc4ccc(Cl)cc4Cl)c32)cc1Cl [Compound #197, (Z)-5-chloro-N-((2-(1-(2,4-dichlorobenzyl)-1,4,5,6-tetrahydro-7H-indazol-7-ylidene)-2-fluoroethyl)carbamoyl)-6-methylpyridine-3-sulfonamide]		8
